Experimental data reported in patent publication US9120787B2, “HIV replication inhibitors” (priority 2011, dated 2015).
Values joined by “and” are separate entries in the source; they are usually repeats but may differ in a detail not shown here. Identical values can stand only once. Like-named read-outs stand apart in the source and are kept apart here.

Experiments:
HIV-1Ba-L [1] = assay: HIV-1Ba-L replication in PBMCs (supernatant RT end-point)
Procedure, shortened: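 Pooled PHA-stimulated human PBMCs (5×10^4 cells/well) were infected with HIV-1Ba-L at MOI 0.1 with nine ½-log compound dilutions and cultured seven days at 37° C. Supernatant RT activity was measured by ^3H-TTP incorporation on poly rA:oligo dT (60 minutes, 37° C) and counted by scintillation.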

[2] = biological target: T1, recombinant HIVNL4-3 heterodimeric (p66/p51) Reverse Transcriptase (Human immunodeficiency virus type 1 group M subtype B, UniProt P12497); assay: Biochemical reverse transcriptase assay; parameters: species or system HIV-1; conditions: 5'LTR template/primer
T1 construct: Purified recombinant HIVNL4-3 heterodimeric (p66/p51) Reverse Transcriptase (RT)
Method: Enantiomers of Example 34 were created and utilized to assess the activity of the compounds in a biochemical reverse transcriptase assay. Purified recombinant HIVNL4-3 heterodimeric (p66/p51) Reverse Transcriptase (RT) was used in experiments. RT activity was determined by the incorporation of radiolabeled deoxyribonucleotides into the newly synthesized DNA strand. The standard RT reaction mixture contained a synthetic homopolymeric template/primer [poly(rA)/oligo(dT)] or in vitro transcribed viral RNA derived from the HIV-1NL4-3 5′-LTR region (nucleotide residues 454 to 652) and a primer complementary to the primer binding site (PBS, nucleotide residues 636 to 652), radiolabeled deoxyribonucleotide, dNTPs and RT. The reaction was carried out in a volume of 40 μl containing 50 mM Tris HCl, pH 7.8, 50 mM KCl, 5 mM MgCl2, 1 mM DTT, 50 μM each of dATP, dCTP, dGTP, 50 nM dTTP, 1 μCi of [^3H] dTTP (70-90 Ci/mM) and 5 nM template/primer. The reaction was initiated by the addition of 10 nM RT. For compound screening, serially diluted test articles were added to the reaction followed by the addition of RT. The reaction mixture was incubated at 37° C. for 1 h, then quenched by the addition of ice-cold trichloroacetic acid (TCA) to the final concentration of 10%. The plate was incubated at 4° C. for 1 h to precipitate the synthesized DNA, then rinsed 3-times with 10% TCA and 1 time with 70% ethanol. After addition of 25 μl scintillation fluid to completely dried wells, radioactivity is counted by MicroBeta scintillation counter. The reduction of radioactivity represents the potency of compound inhibition.

[3] = Cytotoxicity by MTS staining in PBMCs; format: cell-based; conditions: human, peripheral blood mononuclear cells (PBMC), read-out: TC50
Method: (§1) Cytotoxicity was assessed by MTS staining. At assay end-point, PBMC were stained with the addition of […] of the soluble tetrazolium-based dye MTS to determine cell viability and quantify compound toxicity. The plates were incubated 4 to 6 hrs at 37° C. Following incubation, the activity was assessed by reading absorbance values at 490/650 nm.

[4] = Cytotoxicity by MTS staining in uninfected MAGI-CCR5 cells; format: cell-based; conditions: human, read-out: TC50
Procedure, shortened: (§2)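 Uninfected MAGI-CCR5 cells (HeLa-CD4-LTR-β-gal derived, expressing CD4/CCR5) plated at 1.0×10^4 cells/well the day before, then exposed to compounds at six concentrations in triplicate alongside parallel infected assays. Viability read by MTS staining.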

HIV-1Ba-L [5] = assay: Inhibition of virus replication in MAGI-CCR5 cells (β-galactosidase reporter); format: cell-based; conditions: HIV-1Ba-L in MAGI-CCR5 cells; for IC50: 48 hours, β-galactosidase reporter expression, read-out: IC50
Procedure, shortened: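 HeLa-derived MAGI-CCR5 cells (high CD4/CCR5, HIV-1 LTR-driven β-galactosidase) plated at 1.0×10^4 cells/well the day before infection with HIV-1Ba-L. Compounds tested at six concentrations in triplicate, with parallel uninfected plates for cytotoxicity.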

HIV-1 K103N, Y181C (A17) = HIV-1 K103N, Y181C (A17) replication in PBMCs; format: cell-based; conditions: for IC50: Human immunodeficiency virus 1, PBMC; for TI (TC50/IC50): Virus A17 (K103N, Y181C) in PBMCs
Description: In another embodiment of the present disclosure compounds are provided which inhibit the replication of HIV strains resistant to NNRTIs. Compounds in this disclosure inhibit, A17, an HIV-1 virus with mutations in the RT non-nucleoside binding pocket, K103N and Y181C, in a dose-dependent susceptibility testing manner.
The asparagine variation at residue 103 and the cysteine variation at residue 181 are known to inhibit the activity of the NNRTI's.
Evaluation Dihydropyrimidines vs. HIV-1Ba-L and HIV-1 K103N, Y181C in PBMCs

MAGI-CCR5 cells = assay: Cytotoxicity by MTS staining in uninfected MAGI-CCR5 cells; format: cell-based; conditions: 48 hours, read-out: TC50 (the source's name)
Procedure, shortened: as §2

[6] = system: peripheral blood mononuclear cells (PBMC); assay: Cytotoxicity by MTS staining in PBMCs; format: cell-based; conditions: MTS staining, read-out: TC50 (the source's name)
Method: as §1

[7] = Human immunodeficiency virus 1, PBMC, 168 h
[8] = Human immunodeficiency virus 1, BAL, PBMC
[9] = Virus Ba-L in PBMCs (Ba-L vs A17 comparison)

SMILES	TI (TC50/IC50) (HIV-1Ba-L [1]; HIV-1Ba-L in PBMCs)	IC50 (HIV-1Ba-L [1]; [7]) [µM]	IC50 ([2]; 5'LTR/dPR IC50, HIV RT biochemical assay) [µM]	CC50 at 7 days ([3]; MTS staining) [µM]	CC50 at 48 h [4] [µM]	IC50 (HIV-1Ba-L [1]; [8]) [µM]	TI (TC50/IC50) (HIV-1Ba-L [1]; [9])	TI (TC50/IC50) (HIV-1Ba-L [5])	IC50 (HIV-1Ba-L [5]; Human immunodeficiency virus 1) [µM]	CC50 at 7 days ([3]; A17 line of the table) [µM]	CC50 at 7 days ([3]; Ba-L line of the table) [µM]	IC50 (HIV-1 K103N, Y181C (A17)) [µM]	TI (TC50/IC50) (HIV-1 K103N, Y181C (A17))	IC50 ([2]; HIV RT biochemical assay, read-out: 5'LTR/dPR IC50)	effect of RT changes K103N and Y181C on anti-viral activity (HIV-1 K103N, Y181C (A17); virus with K103 to Asparagine and Y181 to cysteine)	CC50 (MAGI-CCR5 cells) [µM]	IC50 (HIV-1Ba-L [5]) [µM]	IC50 (HIV-1Ba-L [1]; HIV-1Ba-L in PBMCs, seven days, RT end-point) [µM]	CC50 [6] [µM]
CC1=C(c2nc(-c3ccc(C#N)cc3)cs2)C(c2cccc(O)c2)NC(=O)N1 (single isomer, unassigned) [Example 34 (enantiomer)]	D (D < 10.0)	5 to 100	> 100	≥ 100															
CC1=C(c2nc(-c3ccc(C#N)cc3)cs2)C(c2cnc3ccccc3n2)NC(=O)N1 (stereo not drawn) [Example 21]	D (D < 10.0)	> 100		≥ 100	≥ 100	> 100	D (D < 10.0)	D (D < 10.0)	> 100	≥ 100	≥ 100	> 100	D (D < 10.0)						
Cc1cn([C@H]2C[C@H](N=[N+]=[N-])[C@@H](COP(=O)(O)OP(=O)(O)OP(=O)(O)O)O2)c(=O)[nH]c1=O [AZT-TP]														0.009 µM and 0.01 µM					
CC1=C(c2nc(-c3ccc(C#N)cc3)cs2)C(c2ccc(F)nc2)NC(=O)N1 (stereo not drawn) [Example 19]	A (A = TI (TC50/IC50) ≧100.0)	< 1		≥ 100	≥ 100	< 1	A (A = TI (TC50/IC50) ≧ 100.0)	B (B < 100.0-50.0)	1 to 5	≥ 100	≥ 100	> 100	D (D < 10.0)		inhibit the anti-viral activity				
CC1=C(c2nc(-c3ccc(F)cc3)cs2)C(Cc2ccccc2)NC(=O)N1 (stereo not drawn) [Example 89]	D (D < 10.0)	5 to 100		≥ 100	≥ 100	> 100	D (D < 10.0)	D (D < 10.0)	> 100	≥ 100	≥ 100	> 100	D (D < 10.0)						
CC1=C(c2nc(-c3ccc(C#N)cc3C)cs2)C(c2cccnc2F)NC(=O)N1 (stereo not drawn) [Example 83]								B (B < 100.0-50.0)								< 50	< 1		
COc1ccc(-c2csc(C3=C(C)NC(=O)NC3c3ccc(F)c([N+](=O)[O-])c3)n2)cc1 (stereo not drawn) [Example 42]	D (D < 10.0)	5 to 100		≥ 100	≥ 100	5 to 100	D (D < 10.0)	D (D < 10.0)	> 100	≥ 100	≥ 100	5 to 100	D (D < 10.0)						
Cc1ccc(-c2ccc3c(c2)C=C(C(=O)Nc2ccc(C[N+](C)(C)C4CCOCC4)cc2)CCC3)cc1.[Cl-] [TAK 779, reference compound]	>29.9							2902.7								> 10	0.004	0.35	> 10
